Each structure is given as a SMILES string.

TBK1, sequence (Q9UHD2 whole entry): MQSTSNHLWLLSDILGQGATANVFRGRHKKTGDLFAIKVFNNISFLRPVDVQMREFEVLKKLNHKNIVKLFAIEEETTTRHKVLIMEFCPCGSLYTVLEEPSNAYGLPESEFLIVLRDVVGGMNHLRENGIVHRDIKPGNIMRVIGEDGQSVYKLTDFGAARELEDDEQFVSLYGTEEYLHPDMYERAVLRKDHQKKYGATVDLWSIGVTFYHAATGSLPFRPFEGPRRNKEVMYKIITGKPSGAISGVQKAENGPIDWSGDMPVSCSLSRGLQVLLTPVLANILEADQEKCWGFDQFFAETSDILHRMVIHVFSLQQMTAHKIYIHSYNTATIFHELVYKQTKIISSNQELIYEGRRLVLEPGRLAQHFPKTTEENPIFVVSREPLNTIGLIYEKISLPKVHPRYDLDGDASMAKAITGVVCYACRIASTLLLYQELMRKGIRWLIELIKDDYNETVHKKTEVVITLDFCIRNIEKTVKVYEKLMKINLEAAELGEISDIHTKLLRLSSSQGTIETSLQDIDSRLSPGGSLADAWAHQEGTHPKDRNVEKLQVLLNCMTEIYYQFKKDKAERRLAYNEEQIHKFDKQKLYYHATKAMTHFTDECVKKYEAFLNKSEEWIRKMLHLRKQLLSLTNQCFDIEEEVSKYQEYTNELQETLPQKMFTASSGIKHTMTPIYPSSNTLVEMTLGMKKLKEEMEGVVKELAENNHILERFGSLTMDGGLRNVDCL

The first experiment concerns the target TBK1 (Homo sapiens (Human), UniProt Q9UHD2). The experiment can be described thus: TBK1 low ATP kinase assay (in vitro assay 1). The experiment is classed as biochemical. As to conditions: TBK1 low ATP kinase assay IC50, in vitro assay 1.
Consider `O=C(CC(F)(F)F)N1CCN(Cc2ccnc(Nc3nc4ccc(-c5cnn(CC6CCC6)c5)cc4[nH]3)c2)CC1` [Example 59.02.01, 1-(4-{[2-({6-[1-(cyclobutylmethyl)-1H-pyrazol-4-yl]-1H-benzimidazol-2-yl}amino)pyridin-4-yl]methyl}piperazin-1-yl)-3,3,3-trifluoropropan-1-one], for which the IC50 turned out to be 7.56 nM.

Staying with this experiment, now noted: in vitro assay 1, read-out: TBK1 low ATP kinase assay IC50.
As to `Cc1noc(-c2ccc3nc(Nc4cc(C(C)N5CCN(C(=O)C6CC6(F)F)CC5)ccn4)[nH]c3c2)n1` (single isomer, unassigned) [Example 16.06.05, ((1RS)-2,2-difluorocyclopropyl){4-[(1R or 1S)-1-(2-{[6-(3-methyl-1,2,4-oxadiazol-5-yl)-1H-benzimidazol-2-yl]amino}pyridin-4-yl)ethyl]piperazin-1-yl}methanone], the half-maximal inhibitory concentration (IC50) came out at 18.1 nM. Take `O=C(CC(F)(F)F)N1CCN(Cc2ccnc(Nc3nc4ccc(-c5cc(NC6CCC6)ncn5)cc4[nH]3)c2)CC1` [Example 152.02, 1-(4-{[2-({6-[6-(cyclobutylamino)pyrimidin-4-yl]-1H-benzimidazol-2-yl}amino)pyridin-4-yl]methyl}piperazin-1-yl)-3,3,3-trifluoropropan-1-one]: the IC50 was 0.48 nM. Still for that read-out and setting: with `CC(c1ccnc(Nc2nc3ccc(-c4cc(N5CCC5)ncn4)cc3[nH]2)c1)N1CCN(C(=O)CC(F)(F)F)CC1` (single isomer, unassigned) [Example 115.02, 1-(4-{(1R or 1S)-1-[2-({6-[6-(azetidin-1-yl)pyrimidin-4-yl]-1H-benzimidazol-2-yl}amino)pyridin-4-yl]ethyl}piperazin-1-yl)-3,3,3-trifluoropropan-1-one] the figure was 0.76 nM; with `COc1ccncc1-c1ccc2nc(Nc3cc(CN4CCN(C(=O)CC5CC5)CC4)ccn3)[nH]c2c1` [Example 14.02, 2-cyclopropyl-1-{4-[(2-{[6-(4-methoxypyridin-3-yl)-1H-benzimidazol-2-yl]amino}pyridin-4-yl)methyl]piperazin-1-yl}ethanone], 283 nM.

As for `Cc1cc(CN2CCN(C(=O)C3CC3)CC2)cc(Nc2nc3ccc(-c4ccncn4)cc3[nH]2)n1` [Example 23.02.02, cyclopropyl{4-[(2-methyl-6-{[6-(pyrimidin-4-yl)-1H-benzimidazol-2-yl]amino}pyridin-4-yl)methyl]piperazin-1-yl}methanone], the IC50 came out at 13.6 nM. Consider `CC(C)Oc1cc(-c2ccc3nc(Nc4cc(CN5CCN(C(=O)CC(F)(F)F)CC5)ccn4)[nH]c3c2)ncn1` [Example 160.02, 3,3,3-trifluoro-1-(4-{[2-({6-[6-(propan-2-yloxy)pyrimidin-4-yl]-1H-benzimidazol-2-yl}amino)pyridin-4-yl]methyl}piperazin-1-yl)propan-1-one], for which the concentration for half-maximal inhibition (IC50) was found to be 13 nM.

In the case of `CC(c1ccnc(Nc2nc3ccc(-c4cnn(CC5CC5(F)F)c4)c(Cl)c3[nH]2)c1)N1CCN(C(=O)CC(F)(F)F)CC1` (single isomer, unassigned) [Example 70.01, 1-{4-[(1R or 1S)-1-(2-{[7-chloro-6-(1-{[(1RS)-2,2-difluorocyclopropyl]methyl}-1H-pyrazol-4-yl)-1H-benzimidazol-2-yl]amino}pyridin-4-yl)ethyl]piperazin-1-yl}-3,3,3-trifluoropropan-1-one], the IC50 amounted to 0.88 nM.

For `Cc1nccc(-c2ccc3nc(Nc4cc(C(C)N5CCN(C(=O)C6CCC6)CC5)ccn4)[nH]c3c2)n1` (racemic) [Example 24.04.02, (rac)-cyclobutyl{4-[1-(2-{[6-(2-methylpyrimidin-4-yl)-1H-benzimidazol-2-yl]amino}pyridin-4-yl)ethyl]piperazin-1-yl}methanone], the half-inhibitory concentration (IC50) stood at 16.1 nM. The same measure, in the same setting: under `COc1cnccc1-c1ccc2nc(Nc3cc(CN4CCN(C(=O)CC(F)(F)F)CC4)ccn3)[nH]c2c1` [Example 04.02, 3,3,3-trifluoro-1-{4-[(2-{[6-(3-methoxypyridin-4-yl)-1H-benzimidazol-2-yl]amino}pyridin-4-yl)methyl]piperazin-1-yl}propan-1-one] stands 16.4 nM; under `CCOc1c(-c2ccncc2OC)ccc2nc(Nc3cc(CN4CCN(C(=O)CC(F)(F)F)CC4)ccn3)[nH]c12` [Example 51.01, 1-{4-[(2-{[7-ethoxy-6-(3-methoxypyridin-4-yl)-1H-benzimidazol-2-yl]amino}pyridin-4-yl)methyl]piperazin-1-yl}-3,3,3-trifluoropropan-1-one], 148 nM; under `COc1cc(-c2ccc3nc(Nc4cc(CN5CCN(C(=O)C6CCC6)CC5)ccn4)[nH]c3c2)ccn1` [Example 02.04, cyclobutyl{4-[(2-{[6-(2-methoxypyridin-4-yl)-1H-benzimidazol-2-yl]amino}pyridin-4-yl)methyl]piperazin-1-yl}methanone], 43.4 nM. Still for that read-out and setting: under `Cc1noc(-c2ccc3nc(Nc4cc(CN5C[C@@H](C)N(C(=O)OC(C)(C)C)C[C@@H]5C)ccn4)[nH]c3c2)n1` [Example 16.02.01, tert-butyl (2R,5S)-2,5-dimethyl-4-[(2-{[6-(3-methyl-1,2,4-oxadiazol-5-yl)-1H-benzimidazol-2-yl]amino}pyridin-4-yl)methyl]piperazine-1-carboxylate] stands 2260 nM; under `CC(c1ccnc(Nc2nc3ccc(-c4cc(OCC(F)(F)C(F)(F)F)ncn4)cc3[nH]2)c1)N1CCN(C(=O)C2(C(F)(F)F)CC2)CC1` (single isomer, unassigned) [Example 166.04, (4-{(1R or 1S)-1[2-({6-[6-(2,2,3,3,3-pentafluoropropoxy)pyrimidin-4-yl]-1H-benzimidazol-2-yl}amino)pyridin-4-yl]ethyl}piperazin-1-yl)[1-(trifluoromethyl)cyclopropyl]methanone], 54.2 nM.

For `CN(C)c1ncnc(-c2ccc3nc(Nc4cc(CN5CCN(C(=O)CC(F)(F)F)CC5)ccn4)[nH]c3c2)c1F` [Example 162.02, 1-(4-{[2-({6-[6-(dimethylamino)-5-fluoropyrimidin-4-yl]-1H-benzimidazol-2-yl}amino)pyridin-4-yl]methyl}piperazin-1-yl)-3,3,3-trifluoropropan-1-one], the IC50 came out at 20 nM. The same measure, in the same setting: under `O=C(CC(F)(F)F)N1CCN(Cc2ccnc(Nc3nc4ccc(-c5ncnc(NCC6CC6)c5F)cc4[nH]3)c2)CC1` [Example 195.02, 1-[4-({2-[(6-{6-[(cyclopropylmethyl)amino]-5-fluoropyrimidin-4-yl}1H-benzimidazol-2-yl)amino]pyridin-4-yl}methyl)piperazin-1-yl]-3,3,3-trifluoropropan-1-one] stands 33.7 nM; under `Cc1ncc(C)c(-c2ccc3nc(Nc4cc(CN5CCN(C(=O)CC(F)(F)F)CC5)ccn4)[nH]c3c2)n1` [Example 33.02, 1-{4-[(2-{[6-(2,5-dimethylpyrimidin-4-yl)-1H-benzimidazol-2-yl]amino}pyridin-4-yl)methyl]piperazin-1-yl}-3,3,3-trifluoropropan-1-one], 1590 nM; under `COc1cnccc1-c1ccc2nc(Nc3cc(CN4CCN(C(=O)C(C)(C)OC)CC4)ccn3)[nH]c2c1` [Example 04.10, 2-methoxy-1-{4-[(2-{[6-(3-methoxypyridin-4-yl)-1H-benzimidazol-2-yl]amino}pyridin-4-yl)methyl]piperazin-1-yl}-2-methylpropan-1-one], 28.3 nM.

As to `COc1ncccc1-c1ccc2nc(Nc3cc(CN4CCN(C(=O)CC5CC5)CC4)ccn3)[nH]c2c1` [Example 15.02, 2-cyclopropyl-1-{4-[(2-{[6-(2-methoxypyridin-3-yl)-1H-benzimidazol-2-yl]amino}pyridin-4-yl)methyl]piperazin-1-yl}ethanone], the IC50 is 401 nM. On the same count and under the same terms, with `CC(c1ccnc(Nc2nc3ccc(-c4cc(OCC(C)(F)F)ncn4)cc3[nH]2)c1)N1CCN(C(=O)C2CC2)CC1` (single isomer, unassigned) [Example 165.03, cyclopropyl(4-{(1R or 1S)-1-[2-({6-[6-(2,2-difluoropropoxy)pyrimidin-4-yl]-1H-benzimidazol-2-yl}amino)pyridin-4-yl]ethyl}piperazin-1-yl)methanone] the figure was 1.79 nM; with `COc1c(Cl)ncnc1-c1ccc2nc(Nc3cc(CN4CCN(C(=O)OC(C)(C)C)CC4)ccn3)[nH]c2c1` [Compound 60.01, tert-butyl 4-[(2-{[6-(6-chloro-5-methoxypyrimidin-4-yl)-1H-benzimidazol-2-yl]amino}pyridin-4-yl)methyl]piperazine-1-carboxylate], 110 nM. For `CC(c1ccnc(Nc2nc3cc(-c4cc(C(F)(F)F)nn4C)ccc3[nH]2)c1)N1CCN(C(=O)OC(C)(C)C)CC1` (single isomer, unassigned) [Example 88.01, tert-butyl 4-{(1R or 1S)-1-[2-({6-[1-methyl-3-(trifluoromethyl)-1H-pyrazol-5-yl]-1H-benzimidazol-2-yl}amino)pyridin-4-yl]ethyl}piperazine-1-carboxylate], the IC50 is 11000 nM.

In the case of `Cc1cc(-c2ccc3nc(Nc4cc(C(C)N5CCN(C(=O)C6CCC6)CC5)ccn4)[nH]c3c2)ncn1` (single isomer, unassigned) [Example 30.03.02.A, cyclobutyl{4-[(1R or 1S)-1-(2-{[6-(6-methylpyrimidin-4-yl)-1H-benzimidazol-2-yl]amino}pyridin-4-yl)ethyl]piperazin-1-yl}methanone], the concentration for half-maximal inhibition (IC50) came to 4.15 nM. Regarding `CC(c1ccnc(Nc2nc3ccc(-c4ccncn4)cc3[nH]2)c1)N1CCN(C(=O)CC(F)(F)F)CC1` (racemic) [Example 23.04.03, (rac)-3,3,3-trifluoro-1-{4-[1-(2-{[6-(pyrimidin-4-yl)-1H-benzimidazol-2-yl]amino}pyridin-4-yl)ethyl]piperazin-1-yl}propan-1-one], the IC50 worked out at 2.47 nM. The same measure, in the same setting: under `CC(c1ccnc(Nc2nc3ccc(-c4cc(N5CCCC5)ncn4)cc3[nH]2)c1)N1CCN(C(=O)C2CC2(F)F)CC1` (single isomer, unassigned) [Example 117.05, ((1RS)-2,2-difluorocyclopropyl)(4-{(1R or 1S)-1-[2-({6-[6-(pyrrolidin-1-yl)pyrimidin-4-yl]-1H-benzimidazol-2-yl}amino)pyridin-4-yl]ethyl}piperazin-1-yl)methanone] stands 0.473 nM.

(Values after patent US10894784B2, “Heteroarylbenzimidazole compounds” (BAYER PHARMA AKTIENGESELLSCHAFT, priority 2015, dated 2021).)
